# According to US11872262B2, “Means and methods for treating bacterial infections” (VIB VZW, priority 2017, dated 2024):
# Residues, ends and D or L forms follow the SMILES beside them.
# Test system: E. coli O157:H7
# Assay type: cell-based, Escherichia coli
# Conditions: screening-stage peptides tested at 1, 6, 12 and 25 μg/mL
# Excerpt: In the present invention we used the statistical thermodynamics algorithm TANGO to identify aggregation prone regions (APR) in the proteome of E. coli strain O157:H7. This yielded 3535 sequences of at least 6 amino acids in length and a TANGO score of at least 20%. In order to generate efficient aggregation seeds, we employed a previously devised tandem repeat design ^19, 21, in which the APRs are repeated once and separated by a linker. Given the length limitation on solid phase peptide synthesis with regard to yield and purity, we focused on the 1542 APRs with a length of 7 amino acids. In order to maximize the potential of these peptides to induce aggregation in E. coli, we ranked the APRs by their frequency of occurrence throughout the E. coli proteome, allowing a single amino acid mismatch, and selected the first 75 most frequently occurring sequences from this list (Table 4). In the design pattern, and in order to increase the colloidal stability of these aggregating peptides, the APRs are flanked by aggregation gatekeepers, a class of residues that was previously shown to reduce aggregation kinetics^22-24. […] To generate the tandem we used a single proline residue as a linker between the gatekeeper-flanked APRs. In addition to the 75 peptides generated in this fashion, we added 2 variants of each of the first 25 peptides in the list by randomly mutating one residue in the first APR repeat to arginine to further modulate the aggregation propensity of the peptides (Table 4). All the peptides were generated using solid phase synthesis at 200 nmole scale and dissolved in DMSO to a theoretical stock concentration of 2 mM (assuming 100% synthesis efficiency). Peptide activity on the growth of E. coli O157:H7 was measured at dilutions of the peptide corresponding to concentrations of 1, 6, 12 and 25 μg/mL. […] The Matthews Correlations Coefficient (MCC) with the measured activity was 0.1 at 12 μg/mL and 0.24 at 25 μg/mL.
row,Structure (SMILES),E. coli O157 (apparent MIC in screen) [µg/mL]
1,CC(C)C[C@H](NC(=O)[C@H](C)NC(=O)[C@H](CC(C)C)NC(=O)[C@@H](NC(=O)[C@H](CCC(N)=O)NC(=O)[C@H](C)NC(=O)[C@H](CCCNC(=N)N)NC(=O)[C@@H]1CCCN1C(=O)[C@H](CCCNC(=N)N)NC(=O)[C@H](CCCNC(=N)N)NC(=O)[C@H](CC(C)C)NC(=O)[C@H](CC(C)C)NC(=O)[C@H](C)NC(=O)[C@H](CC(C)C)NC(=O)[C@@H](NC(=O)[C@H](CCC(N)=O)NC(=O)[C@H](C)NC(=O)[C@@H](N)CCCNC(=N)N)C(C)C)C(C)C)C(=O)N[C@@H](CC(C)C)C(=O)N[C@@H](CCCNC(=N)N)C(=O)N[C@@H](CCCNC(=N)N)C(=O)O [Peptide P40] (H-RAQVLALLRRPRAQVLALLRR-OH; N-terminus and C-terminus assumed),25
2,CC(C)C[C@H](NC(=O)[C@H](CC(N)=O)NC(=O)[C@H](CC(C)C)NC(=O)[C@H](CC(C)C)NC(=O)[C@@H](NC(=O)[C@H](CC(C)C)NC(=O)[C@H](CC(C)C)NC(=O)[C@H](CCCNC(=N)N)NC(=O)[C@@H]1CCCN1C(=O)[C@H](CCCNC(=N)N)NC(=O)[C@H](CCCNC(=N)N)NC(=O)[C@H](CC(C)C)NC(=O)[C@H](CC(N)=O)NC(=O)[C@H](CC(C)C)NC(=O)[C@H](CC(C)C)NC(=O)[C@@H](NC(=O)[C@H](CC(C)C)NC(=O)[C@H](CC(C)C)NC(=O)[C@@H](N)CCCNC(=N)N)[C@@H](C)O)[C@@H](C)O)C(=O)N[C@@H](CCCNC(=N)N)C(=O)N[C@@H](CCCNC(=N)N)C(=O)O [Peptide P49] (H-RLLTLLNLRRPRLLTLLNLRR-OH; N-terminus and C-terminus assumed),12
3,CC(C)C[C@H](NC(=O)CNC(=O)[C@@H](NC(=O)[C@H](CC(C)C)NC(=O)[C@H](CCCNC(=N)N)NC(=O)[C@@H]1CCCN1C(=O)[C@H](CCCNC(=N)N)NC(=O)[C@H](CCCNC(=N)N)NC(=O)CNC(=O)[C@H](CC(C)C)NC(=O)[C@@H](NC(=O)[C@H](CC(C)C)NC(=O)CNC(=O)[C@@H](NC(=O)[C@H](CC(C)C)NC(=O)[C@@H](N)CCCNC(=N)N)C(C)C)C(C)C)C(C)C)C(=O)N[C@H](C(=O)N[C@@H](CC(C)C)C(=O)NCC(=O)N[C@@H](CCCNC(=N)N)C(=O)N[C@@H](CCCNC(=N)N)C(=O)O)C(C)C [Peptide P50] (H-RLVGLVLGRRPRLVGLVLGRR-OH; N-terminus and C-terminus assumed),6
4,CC(C)C[C@H](NC(=O)[C@H](C)NC(=O)[C@H](CCCNC(=N)N)NC(=O)[C@@H]1CCCN1C(=O)[C@H](CCCNC(=N)N)NC(=O)[C@H](CCCNC(=N)N)NC(=O)[C@H](CC(C)C)NC(=O)[C@H](CC(C)C)NC(=O)[C@H](CC(C)C)NC(=O)[C@H](CO)NC(=O)[C@@H](NC(=O)[C@H](CC(C)C)NC(=O)[C@H](C)NC(=O)[C@@H](N)CCCNC(=N)N)C(C)C)C(=O)N[C@H](C(=O)N[C@@H](CO)C(=O)N[C@@H](CC(C)C)C(=O)N[C@@H](CC(C)C)C(=O)N[C@@H](CC(C)C)C(=O)N[C@@H](CCCNC(=N)N)C(=O)N[C@@H](CCCNC(=N)N)C(=O)O)C(C)C [Peptide P58] (H-RALVSLLLRRPRALVSLLLRR-OH; N-terminus and C-terminus assumed),12
5,CC(C)C[C@H](NC(=O)[C@H](CCC(N)=O)NC(=O)[C@H](CCCNC(=N)N)NC(=O)[C@@H]1CCCN1C(=O)[C@H](CCCNC(=N)N)NC(=O)[C@H](CCCNC(=N)N)NC(=O)[C@H](CC(C)C)NC(=O)[C@H](CC(C)C)NC(=O)[C@@H](NC(=O)[C@H](CC(C)C)NC(=O)[C@H](CC(C)C)NC(=O)[C@H](CC(C)C)NC(=O)[C@H](CCC(N)=O)NC(=O)[C@@H](N)CCCNC(=N)N)[C@@H](C)O)C(=O)N[C@@H](CC(C)C)C(=O)N[C@@H](CC(C)C)C(=O)N[C@H](C(=O)N[C@@H](CC(C)C)C(=O)N[C@@H](CC(C)C)C(=O)N[C@@H](CCCNC(=N)N)C(=O)N[C@@H](CCCNC(=N)N)C(=O)O)[C@@H](C)O [Peptide P72] (H-RQLLLTLLRRPRQLLLTLLRR-OH; N-terminus and C-terminus assumed),25
6,CC(C)C[C@H](NC(=O)[C@H](CC(C)C)NC(=O)[C@H](CC(C)C)NC(=O)[C@H](CCCNC(=N)N)NC(=O)[C@@H]1CCCN1C(=O)[C@H](CCCNC(=N)N)NC(=O)[C@H](CCCNC(=N)N)NC(=O)[C@@H](NC(=O)[C@H](CC(C)C)NC(=O)[C@H](CC(C)C)NC(=O)[C@H](CO)NC(=O)[C@H](CC(C)C)NC(=O)[C@H](CCCNC(=N)N)NC(=O)[C@H](CC(C)C)NC(=O)[C@@H](N)CCCNC(=N)N)C(C)C)C(=O)N[C@@H](CO)C(=O)N[C@@H](CC(C)C)C(=O)N[C@@H](CC(C)C)C(=O)N[C@H](C(=O)N[C@@H](CCCNC(=N)N)C(=O)N[C@@H](CCCNC(=N)N)C(=O)O)C(C)C [Peptide P76] (H-RLRLSLLVRRPRLLLSLLVRR-OH; N-terminus and C-terminus assumed),12
7,CC(C)C[C@H](NC(=O)[C@H](C)NC(=O)[C@H](CC(C)C)NC(=O)[C@H](CCCNC(=N)N)NC(=O)[C@@H]1CCCN1C(=O)[C@H](CCCNC(=N)N)NC(=O)[C@H](CCCNC(=N)N)NC(=O)[C@H](CC(C)C)NC(=O)[C@H](CC(C)C)NC(=O)[C@H](CC(C)C)NC(=O)[C@H](CCCNC(=N)N)NC(=O)[C@H](CC(C)C)NC(=O)[C@H](C)NC(=O)[C@H](CC(C)C)NC(=O)[C@@H](N)CCCNC(=N)N)C(=O)N[C@@H](C)C(=O)N[C@@H](CC(C)C)C(=O)N[C@@H](CC(C)C)C(=O)N[C@@H](CC(C)C)C(=O)N[C@@H](CCCNC(=N)N)C(=O)N[C@@H](CCCNC(=N)N)C(=O)O [Peptide P79] (H-RLALRLLLRRPRLALALLLRR-OH; N-terminus and C-terminus assumed),12
8,CC(C)C[C@H](NC(=O)[C@H](C)NC(=O)[C@H](CCCNC(=N)N)NC(=O)[C@@H]1CCCN1C(=O)[C@H](CCCNC(=N)N)NC(=O)[C@H](CCCNC(=N)N)NC(=O)[C@H](CC(C)C)NC(=O)[C@H](CC(C)C)NC(=O)[C@@H](NC(=O)[C@@H](NC(=O)[C@H](CCCNC(=N)N)NC(=O)[C@H](CC(C)C)NC(=O)[C@H](C)NC(=O)[C@@H](N)CCCNC(=N)N)[C@@H](C)O)[C@@H](C)O)C(=O)N[C@@H](CC(C)C)C(=O)N[C@H](C(=O)N[C@H](C(=O)N[C@@H](CC(C)C)C(=O)N[C@@H](CC(C)C)C(=O)N[C@@H](CCCNC(=N)N)C(=O)N[C@@H](CCCNC(=N)N)C(=O)O)[C@@H](C)O)[C@@H](C)O [Peptide P80] (H-RALRTTLLRRPRALLTTLLRR-OH; N-terminus and C-terminus assumed),25
9,CC(C)C[C@H](NC(=O)[C@H](C)NC(=O)[C@H](CCCNC(=N)N)NC(=O)[C@@H]1CCCN1C(=O)[C@H](CCCNC(=N)N)NC(=O)[C@H](CCCNC(=N)N)NC(=O)[C@H](CC(C)C)NC(=O)[C@H](CC(C)C)NC(=O)[C@H](C)NC(=O)[C@@H](NC(=O)[C@H](CCCNC(=N)N)NC(=O)[C@H](CC(C)C)NC(=O)[C@H](C)NC(=O)[C@@H](N)CCCNC(=N)N)C(C)C)C(=O)N[C@@H](C)C(=O)N[C@H](C(=O)N[C@@H](C)C(=O)N[C@@H](CC(C)C)C(=O)N[C@@H](CC(C)C)C(=O)N[C@@H](CCCNC(=N)N)C(=O)N[C@@H](CCCNC(=N)N)C(=O)O)C(C)C [Peptide P87] (H-RALRVALLRRPRALAVALLRR-OH; N-terminus and C-terminus assumed),25
10,CC(C)C[C@H](NC(=O)CNC(=O)[C@H](CC(C)C)NC(=O)[C@@H](NC(=O)[C@H](C)NC(=O)[C@H](CCCNC(=N)N)NC(=O)[C@@H]1CCCN1C(=O)[C@H](CCCNC(=N)N)NC(=O)[C@H](CCCNC(=N)N)NC(=O)[C@H](C)NC(=O)[C@H](CC(C)C)NC(=O)[C@H](CC(C)C)NC(=O)CNC(=O)[C@H](CCCNC(=N)N)NC(=O)[C@@H](NC(=O)[C@H](C)NC(=O)[C@@H](N)CCCNC(=N)N)C(C)C)C(C)C)C(=O)N[C@@H](CC(C)C)C(=O)N[C@@H](C)C(=O)N[C@@H](CCCNC(=N)N)C(=O)N[C@@H](CCCNC(=N)N)C(=O)O [Peptide P88] (H-RAVRGLLARRPRAVLGLLARR-OH; N-terminus and C-terminus assumed),25
11,CC(C)C[C@H](NC(=O)CNC(=O)[C@H](CCCNC(=N)N)NC(=O)[C@@H]1CCCN1C(=O)[C@H](CCCNC(=N)N)NC(=O)[C@H](CCCNC(=N)N)NC(=O)[C@H](C)NC(=O)[C@H](CC(C)C)NC(=O)[C@H](CCCNC(=N)N)NC(=O)[C@H](C)NC(=O)[C@H](CC(C)C)NC(=O)[C@H](CC(C)C)NC(=O)CNC(=O)[C@@H](N)CCCNC(=N)N)C(=O)N[C@@H](CC(C)C)C(=O)N[C@@H](C)C(=O)N[C@@H](CC(C)C)C(=O)N[C@@H](CC(C)C)C(=O)N[C@@H](C)C(=O)N[C@@H](CCCNC(=N)N)C(=O)N[C@@H](CCCNC(=N)N)C(=O)O [Peptide P89] (H-RGLLARLARRPRGLLALLARR-OH; N-terminus and C-terminus assumed),12
